According to patent US20080234173A1, “PRESERVATIVE COMPOSITIONS” (TAKASAGO INTERNATIONAL CORPORATION, priority 2007, published 2008):
“Also recorded” adds a separate entry of the source.

Test system: Pseudomonas aeruginosa ATCC 15442
Assay: Anti-Bacterial Test Method: log reduction of bacterial colonies after 3 days exposure in water
Assay type: cell-based
Procedure: Materials were dissolved in ethanol (or deionized water in the case of water soluble preservatives) to a concentration of 100 mg/ml. 30 μl of this solution added to 3 ml deionized water gave a final concentration of 0.1%. (If necessary, solutions are sonicated for 15 minutes and allowed to equilibrate back to ambient temperature.) Bacterial cultures were added to this solution, mixed on a vortex mixer and a dock started. After 3 days, an aliquot is sampled and added to a D/E (Dey/Engley) neutralization broth (marketed by Becton and Dickinson Cγ) and plated onto solid media. Bacterial colonies are counted after overnight incubation. The selected indicator microorganism was Pseudomonas aeruginosa ATCC 15442.
All results are quoted as the reduction in activity expressed as a logarithm to the base 10 measured after 3 days incubation and compared with the inocculum unless otherwise noted.
All percentages are quoted as weight per unit volume (e.g. g/ml) unless indicated otherwise.

OCCOc1ccccc1 [phenoxyethanol, 2-Phenoxyethanol]
log reduction, compared with the ethanol solvent control, after 3 days (0.1% phenoxyethanol alone): 0.4 log

Cl/C=C\C[N+]12CN3CN(CN(C3)C1)C2.[Cl-] [Dowicil 200, cis-1-3-chloroallyl-3,5,7-triaza-1-azoniaadamantane chloride]
log reduction, compared with the ethanol solvent control (0.05% Dowicil 200 alone): 1.3 log
log reduction after 3 days vs Inocculum (0.05% Dowicil (line of Test Example 14 without fragrance)): 0.7 log

OCc1ccccc1 [Benzyl alcohol]
Log Reduction after 3 days (0.025% Benzyl alcohol alone): 0.2 log

CCOC(=O)c1ccccc1C(=O)OCC [diethyl phthalate]
effect of addition of diethyl phthalate on antibacterial / preservative efficacy (0.1% or 0.2% diethyl phthalate added to fragrance ingredient + preservative mixture): detrimental to antibacterial efficacy; also recorded: detrimental to preservative efficacy
